Test results reported in US11203600B2 (Denali Therapeutics Inc., priority 2017, dated 2021).

target: GST-hRIPK1 (8-327) (Homo sapiens (Human), UniProt Q13546); assay: Fluorescent Polarization Binding (FP Binding) assay, RIPK1; details: 10 nM GST-hRIPK1 (8-327), 5 nM fluorescent-labeled ligand, RT, 30 min, mean of at least two independent experiments
Outline: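 Binding by fluorescence polarisation at RT: 10 nM baculovirus-expressed GST-hRIPK1 (8-327) and 5 nM fluorescent ligand, 30 min, in 50 mM HEPES pH 7.5, 50 mM MgCl2, 0.02% CHAPS, 1% DMSO. FP read at ex 531/em 595 nm. IC50 from normalised percent inhibition, mean of ≥2 experiments.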

Chain of GST-hRIPK1 (8-327) (Q13546 8-327): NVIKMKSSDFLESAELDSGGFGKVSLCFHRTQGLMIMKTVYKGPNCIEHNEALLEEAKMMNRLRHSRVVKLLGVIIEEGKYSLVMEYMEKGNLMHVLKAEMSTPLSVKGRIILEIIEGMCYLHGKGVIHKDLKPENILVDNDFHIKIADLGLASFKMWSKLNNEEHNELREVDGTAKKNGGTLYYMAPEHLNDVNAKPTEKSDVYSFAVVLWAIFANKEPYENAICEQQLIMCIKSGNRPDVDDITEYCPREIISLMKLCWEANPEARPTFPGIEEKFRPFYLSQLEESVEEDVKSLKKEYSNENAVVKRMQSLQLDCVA

Row | SMILES | IC50 [nM]
1 | N#Cc1cncc2c1OCCN(C(=O)C1(C(F)(F)F)CC1)C2 [Example 48, 4-[1-(trifluoromethyl)cyclopropanecarbonyl]-3,5-dihydro-2H-pyrido[3,4-f][1,4]oxazepine-9-carbonitrile] | 100 to 1000
2 | N#Cc1cncc2c1OCCN(C(=O)C1CCN(c3nccc(OCC(F)F)n3)CC1)C2 [Example 133, 4-[1-[4-(2,2-difluoroethoxy)pyrimidin-2-yl]piperidine-4-carbonyl]-3,5-dihydro-2H-pyrido[3,4-f][1,4]oxazepine-9-carbonitrile] | 100 to 1000
3 | COc1ccnc(N2CCC(F)(C(=O)N3CCOc4c(C#N)cncc4C3)CC2)n1 [Example 103, 4-[4-fluoro-1-(4-methoxypyrimidin-2-yl)piperidine-4-carbonyl]-3,5-dihydro-2H-pyrido[3,4-f][1,4]oxazepine-9-carbonitrile] | 0.1 to 100
4 | N#Cc1cncc2c1OCCN(C(=O)C1(F)CCN(c3ncc(OC(F)F)cn3)CC1)C2 [Example 102, 4-[1-[5-(difluoromethoxy)pyrimidin-2-yl]-4-fluoro-piperidine-4-carbonyl]-3,5-dihydro-2H-pyrido[3,4-f][1,4]oxazepine-9-carbonitrile] | 100 to 1000
5 | N#Cc1cncc2c1OCCN(C(=O)C1(C(F)(F)F)CCC1)C2 [Example 53, 4-[1-(trifluoromethyl)cyclobutanecarbonyl]-3,5-dihydro-2H-pyrido[3,4-f][1,4]oxazepine-9-carbonitrile] | 100 to 1000
6 | CC(C)(C(=O)N1CCOc2c(C#N)cncc2C1)C(F)(F)F [Example 45, 4-(3,3,3-trifluoro-2,2-dimethyl-propanoyl)-3,5-dihydro-2H-pyrido[3,4-f][1,4]oxazepine-9-carbonitrile] | 0.1 to 100
7 | CCC(C)(C)C(=O)N1CCOc2c(C#N)cncc2C1 [Example 54, 4-(2,2-dimethylbutanoyl)-3,5-dihydro-2H-pyrido[3,4-f][1,4]oxazepine-9-carbonitrile] | 0.1 to 100
8 | CNc1nc(N2CCC(F)(C(=O)N3CCOc4c(C#N)cncc4C3)CC2)ncc1F [Example 123, 4-[4-fluoro-1-[5-fluoro-4-(methylamino)pyrimidin-2-yl]piperidine-4-carbonyl]-3,5-dihydro-2H-pyrido[3,4-f][1,4]oxazepine-9-carbonitrile] | 100 to 1000
9 | N#Cc1cncc2c1OCCN(C(=O)C1(F)CCN(c3nccc4ncnn34)CC1)C2 [Example 166, 4-[4-fluoro-1-([1,2,4]triazolo[1,5-c]pyrimidin-5-yl)piperidine-4-carbonyl]-3,5-dihydro-2H-pyrido[3,4-f][1,4]oxazepine-9-carbonitrile] | 100 to 1000
10 | N#Cc1cncc2c1OCCN(C(=O)C1(F)CCN(c3ncc4ccccc4n3)CC1)C2 [Example 97, 4-(4-fluoro-1-quinazolin-2-yl-piperidine-4-carbonyl)-3,5-dihydro-2H-pyrido[3,4-f][1,4]oxazepine-9-carbonitrile] | 0.1 to 100
11 | N#Cc1cncc2c1OCCN(C(=O)C1(C3CC3)CC1)C2 [Example 46, 4-(1-cyclopropylcyclopropanecarbonyl)-3,5-dihydro-2H-pyrido[3,4-f][1,4]oxazepine-9-carbonitrile] | 100 to 1000
12 | CCC(C)(C(=O)N1CCOc2c(C#N)cncc2C1)C(F)F (stereo not shown) [Example 57, 4-(2-(difluoromethyl)-2-methylbutanoyl)-2,3,4,5-tetrahydropyrido[3,4-f][1,4]oxazepine-9-carbonitrile] | 0.1 to 100
13 | CC(C)(C(=O)N1CCOc2c(F)cncc2C1)C(F)(F)F [Example 79, 3,3,3-trifluoro-1-(9-fluoro-3,5-dihydro-2H-pyrido[3,4-f][1,4]oxazepin-4-yl)-2,2-dimethyl-propan-1-one] | 100 to 1000
14 | C[C@@H]1C[C@]1(C)C(=O)N1CCOc2c(C#N)cncc2C1 [Example 65, 4-[(1S,2R)-1,2-dimethylcyclopropanecarbonyl]-3,5-dihydro-2H-pyrido[3,4-f][1,4]oxazepine-9-carbonitrile] | 100 to 1000
15 | CC(C)COC(=O)N1CCC(F)(C(=O)N2CCOc3c(C#N)cncc3C2)CC1 [Example 174, isobutyl 4-(9-cyano-3,5-dihydro-2H-pyrido[3,4-f][1,4]oxazepine-4-carbonyl)-4-fluoro-piperidine-1-carboxylate] | > 1000
16 | COC1(C(=O)N2Cc3cncc(C#N)c3OC[C@H]2C)CCN(c2ncc(F)cn2)CC1 [Example 105, (3R)-4-[1-(5-fluoropyrimidin-2-yl)-4-methoxy-piperidine-4-carbonyl]-3-methyl-3,5-dihydro-2H-pyrido[3,4-f][1,4]oxazepine-9-carbonitrile] | 0.1 to 100
17 | CC1(C(=O)N2CCOc3c(C#N)cccc3C2)CCN(c2ncc(F)cn2)CC1 [Example 24, 4-[1-(5-fluoropyrimidin-2-yl)-4-methyl-piperidine-4-carbonyl]-3,5-dihydro-2H-1,4-benzoxazepine-9-carbonitrile] | 0.1 to 100
18 | N#Cc1cncc2c1OCCN(C(=O)C1(C(F)F)CC1)C2 [Example 139, 4-[1-(difluoromethyl)cyclopropanecarbonyl)-3,5-dihydro-2H-pyrido[3,4-f][1,4]oxazepine-9-carbonitrile] | > 1000
19 | CC1(C(=O)N2CCOc3c(C#N)cncc3C2)CC(F)(F)C1 [Example 138, 4-(3,3-difluoro-1-methyl-cyclobutanecarbonyl)-3,5-dihydro-2H-pyrido[3,4-f][1,4]oxazepine-9-carbonitrile] | 100 to 1000
20 | N#Cc1cncc2c1OCCN(C(=O)C1(F)CCN(c3ncc(F)cn3)CC1)C2 [Example 161, 4-[4-fluoro-1-(5-fluoropyrimidin-2-yl)piperidine-4-carbonyl]-3,5-dihydro-2H-pyrido[3,4-f][1,4]oxazepine-9-carbonitrile] | 0.1 to 100
21 | CCC(C)(OC)C(=O)N1CCOc2c(C#N)cncc2C1 (stereo not shown) [Example 153, 4-(2-methoxy-2-methyl-butanoyl)-3,5-dihydro-2H-pyrido[3,4-f][1,4]oxazepine-9-carbonitrile] | 0.1 to 100
22 | N#Cc1cncc2c1OCCN(C(=O)C1(F)CCN(c3ncccc3F)CC1)C2 [Example 113, 4-[4-fluoro-1-(3-fluoro-2-pyridyl)piperidine-4-carbonyl]-3,5-dihydro-2H-pyrido[3,4-f][1,4]oxazepine-9-carbonitrile] | 100 to 1000
23 | CCC(C)(C(=O)N1CCOc2c(C#N)cncc2C1)C(F)(F)F (stereo not shown) [Example 67, 4-[2-methyl-2-(trifluoromethyl)butanoyl]-3,5-dihydro-2H-pyrido[3,4f][1,4]oxazepine-9-carbonitrile] | 0.1 to 100

same assay, conditions: GST-hRIPK1 (8-327), mean of at least two independent experiments

Row | SMILES | IC50 [nM]
24 | O=C(C1=CCN(c2ncc(F)cn2)CC1)N1CCOc2c(F)cncc2C1 [Example 248] | 100 to 1000
25 | CC(C)(C(=O)N1CCOc2c(C#N)cncc2C1)C1CCN(c2ncc(F)cn2)C1 (single isomer, unassigned) [Example 280, 4-[2-(-1-(5-Fluoropyrimidin-2-yl)pyrrolidin-3-yl)-2-methyl-propanoyl]-3,5-dihydro-2H-pyrido[3,4-f][1,4]oxazepine-9-carbonitrile] | > 1000
26 | CC(C)(C(=O)N1CCOc2c(C#N)cncc2C1)C1CCN(c2ncc(F)cn2)C1 (single isomer, unassigned) [Example 281, 4-[2-(-1-(5-Fluoropyrimidin-2-yl)pyrrolidin-3-yl)-2-methyl-propanoyl]-3,5-dihydro-2H-pyrido[3,4-f][1,4]oxazepine-9-carbonitrile] | 0.1 to 100
27 | CC1(C(=O)N2CCOc3c(C#N)cncc3C2)CCN(c2ncccn2)CC1(F)F (single isomer, unassigned) [Example 298, 4-[3,3-Difluoro-4-methyl-1-pyrimidin-2-yl-piperidine-4-carbonyl]-3,5-dihydro-2H-pyrido[3,4-f][1,4]oxazepine-9-carbonitrile] | > 1000
28 | COc1nc(N2CCC(C(=O)N3CCOc4c(F)cncc4C3)CC2)ncc1F [Example 236] | 0.1 to 100
29 | CC(C)(C(=O)N1CCOc2c(C#N)cncc2C1)[C@H]1C[C@@H](Cn2ccnn2)C1 [Example 293, cis-4-[2-methyl-2-[3-(triazol-1-ylmethyl)cyclobutyl]propanoyl]-3,5-dihydro-2H-pyrido [3,4-f][1,4]oxazepine-9-carbonitrile] | > 1000
30 | N#Cc1cncc2c1OCCN(C(=O)C1CCN(c3nccn4ncnc34)CC1F)C2 (single isomer, unassigned) [Example 301, 4-[3-Fluoro-1-([1,2,4]triazolo[1,5-a]pyrazin-8-yl)piperidine-4-carbonyl]-3,5-dihydro-2H-pyrido[3,4-f][1,4]oxazepine-9-carbonitrile] | 100 to 1000
31 | O=C(C1CCN(c2ncnc(OCC(F)F)n2)CC1)N1CCOc2c(F)cncc2C1 [Example 210, [1-[4-(2,2-difluoroethoxy)-1,3,5-triazin-2-yl]-4-piperidyl]-(9-fluoro-3,5-dihydro-2H-pyrido[3,4-f][1,4]oxazepin-4-yl)methanone] | 100 to 1000
32 | CC(C(=O)N1CCOc2c(C#N)cncc2C1)(C(F)F)C(F)F [Example 268, 4-[2-(difluoromethyl)-3,3-difluoro-2-methyl-propanoyl]-3,5-dihydro-2H-pyrido[3,4-f][1,4]oxazepine-9-carbonitrile] | 100 to 1000
33 | CCC(C)(C(=O)N1CCOc2c(C#N)cncc2C1)C(F)F (single isomer, unassigned) [Example 260, 4-(2-(Difluoromethyl)-2-methylbutanoyl)-2,3,4,5-tetrahydropyrido[3,4-f][1,4]oxazepine-9-carbonitrile] | 0.1 to 100
34 | CC1(C(=O)N2CCOc3c(C#N)cncc3C2)CCN(c2ncc(F)cn2)CC1F (single isomer, unassigned) [Example 300, 4-[3-Fluoro-1-(5-fluoropyrimidin-2-yl)-4-methyl-piperidine-4-carbonyl]-3,5-dihydro-2H-pyrido[3,4-f][1,4]oxazepine-9-carbonitrile] | 0.1 to 100
